Laboratory results as given in PubChem BioAssay AID256 (DTP/NCI, 2004).
Values joined by “and” are separate entries in the source; they are usually repeats but may differ in a detail not shown here. Equal values may be shown once. Inconclusive results and toxic doses are left out. How the source made its calls: active means survival T/C of 150% or more; inactive means T/C below 125% in these data.

Tested on: CD2F1 mice, L1210 leukemia ip, survival T/C
Assay: NCI In Vivo Anticancer Drug Screen. Data for tumor model L1210 Leukemia (intraperitoneal) in CD2F1 (CDF1) mice
Details: endpoint: mean survival time, higher = longer survival
Summary of the method: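 Tumor-bearing mice (transplanted tumor) were split into treated and vehicle control groups, and the measured endpoint of each treated group was divided by that of its vehicle controls.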

[1] = dose: 25.0 mg/kg/injection, schedule: Q04DX002 (ip), vehicle: saline
[2] = dose: 50.0 mg/kg/injection, schedule: Q04DX002 (ip), vehicle: saline
[3] = dose: 100.0 mg/kg/injection, schedule: Q04DX002 (ip), vehicle: saline
[4] = dose: 25.0 mg/kg/injection, schedule: Q01DX009 (ip), vehicle: saline with Tween-80
[5] = dose: 100.0 mg/kg/injection, schedule: Q01DX009 (ip), vehicle: saline with Tween-80
[6] = dose: 200.0 mg/kg/injection, schedule: Q01DX009 (ip), vehicle: saline with Tween-80
[7] = dose: 400.0 mg/kg/injection, schedule: Q01DX009 (ip), vehicle: saline with Tween-80
[8] = dose: 100.0 mg/kg/injection, schedule: Q04DX003 (ip), vehicle: saline with Tween-80
[9] = dose: 200.0 mg/kg/injection, schedule: Q04DX003 (ip), vehicle: saline with Tween-80
[10] = dose: 400.0 mg/kg/injection, schedule: Q04DX003 (ip), vehicle: saline with Tween-80
[11] = dose: 50.0 mg/kg/injection, schedule: Q01DX009 (ip), vehicle: saline with Tween-80

Measured: T/C

C1CCC(CCC2CCCC[N-]2)[N-]C1.C1CCC(CCC2CCCC[N-]2)[N-]C1.[Ni+2].[O-][Cl+3]([O-])([O-])O (stereo not drawn)
inactive: dose: 5.0 mg/kg/injection, schedule: Q01DX009 (ip), vehicle: saline 103 % of control | dose: 10.0 mg/kg/injection, schedule: Q01DX009 (ip), vehicle: saline 104 % of control | dose: 12.5 mg/kg/injection, schedule: Q01DX001 (ip), vehicle: saline with Tween-80 90 % of control | dose: 12.5 mg/kg/injection, schedule: Q04DX002 (ip), vehicle: saline 95 % of control | dose: 12.5 mg/kg/injection, schedule: Q04DX003 (ip), vehicle: saline 104 % of control | dose: 20.0 mg/kg/injection, schedule: Q01DX009 (ip), vehicle: saline 103 % of control | dose: 25.0 mg/kg/injection, schedule: Q01DX001 (ip), vehicle: saline 102 % of control | [1] 98 % of control | dose: 25.0 mg/kg/injection, schedule: Q04DX003 (ip), vehicle: saline 108 % of control | dose: 40.0 mg/kg/injection, schedule: Q01DX009 (ip), vehicle: saline 109 % of control | dose: 50.0 mg/kg/injection, schedule: Q01DX001 (ip), vehicle: saline 102 % of control | [2] 98 % of control | dose: 50.0 mg/kg/injection, schedule: Q04DX003 (ip), vehicle: saline 102 % of control | dose: 75.0 mg/kg/injection, schedule: Q01DX001 (ip), vehicle: saline 101 % of control | dose: 100.0 mg/kg/injection, schedule: Q01DX001 (ip), vehicle: saline 102 % of control | [3] 102 % of control | dose: 100.0 mg/kg/injection, schedule: Q04DX003 (ip), vehicle: saline 104 % of control

CCCCC(CCCC)c1ccccn1
inactive: dose: 6.25 mg/kg/injection, schedule: Q01DX009 (ip), vehicle: saline with Tween-80 91 % of control | dose: 12.5 mg/kg/injection, schedule: Q01DX009 (ip), vehicle: saline with Tween-80 96 % of control | [4] 96 % of control

CCC(=O)O.CCC(=O)O.CCC(=O)O.CCC(=O)O.O=P1(N(CCCl)CCCl)NCCCO1.O=P1(N(CCCl)CCCl)NCCCO1.[Rh].[Rh] (stereo not drawn)
inactive: dose: 0.5 mg/kg/injection, schedule: Q01DX001 (ip), vehicle: water 92 % of control | dose: 1.0 mg/kg/injection, schedule: Q01DX001 (ip), vehicle: water 92 % of control | dose: 2.0 mg/kg/injection, schedule: Q01DX001 (ip), vehicle: water 102 % of control | dose: 4.0 mg/kg/injection, schedule: Q01DX001 (ip), vehicle: water 107 % of control

C(CCSC1=NCCN1)CSC1=NCCN1
inactive: [1] 96 % of control | [2] 107 % of control | [3] 90 % of control

CCOC(=O)c1c(C)[nH]oc1=O
inactive: [5] 96 % of control

CC(C)NC(=O)CCCN(C(=O)OCc1ccccc1)N(C)C(=O)OCc1ccccc1
inactive: dose: 25.0 mg/kg/injection, schedule: Q04DX003 (ip), vehicle: Klucel (hydroxypropylcellulose) (HPC) 94 % of control | dose: 50.0 mg/kg/injection, schedule: Q04DX003 (ip), vehicle: Klucel (hydroxypropylcellulose) (HPC) 91 % of control | dose: 100.0 mg/kg/injection, schedule: Q04DX003 (ip), vehicle: Klucel (hydroxypropylcellulose) (HPC) 103 % of control | dose: 200.0 mg/kg/injection, schedule: Q04DX003 (ip), vehicle: Klucel (hydroxypropylcellulose) (HPC) 91 % of control | dose: 400.0 mg/kg/injection, schedule: Q04DX003 (ip), vehicle: Klucel (hydroxypropylcellulose) (HPC) 95 % of control

Cc1ccc2c(c1)CN(C13CC4CC(CC(C4)C1)C3)CO2
inactive: [5] 96 % of control | [6] 96 % of control | [7] 97 % of control

O=C(O)CNCP(=O)(O)O
inactive: [5] 95 % of control | [8] 105 % of control | [6] 93 % of control | [9] 102 % of control | [7] 89 % of control | [10] 100 % of control

COc1cccc(CCN)c1
inactive: dose: 18.75 mg/kg/injection, schedule: Q01DX009 (ip), vehicle: saline sonified 98 % of control | dose: 37.5 mg/kg/injection, schedule: Q01DX009 (ip), vehicle: saline sonified 97 % of control | dose: 37.5 mg/kg/injection, schedule: Q01DX009 (ip), vehicle: saline with Tween-80 108 % of control | dose: 75.0 mg/kg/injection, schedule: Q01DX009 (ip), vehicle: saline sonified 97 % of control | dose: 75.0 mg/kg/injection, schedule: Q01DX009 (ip), vehicle: saline with Tween-80 103 % of control

CC(=O)C1CC(=O)c2c(O)ccc(O)c2C1 (stereo not drawn)
inactive: dose: 12.5 mg/kg/injection, schedule: Q01DX009 (ip), vehicle: water 95 % of control | dose: 25.0 mg/kg/injection, schedule: Q01DX009 (ip), vehicle: water 101 % of control | dose: 50.0 mg/kg/injection, schedule: Q01DX009 (ip), vehicle: water 95 % of control | dose: 100.0 mg/kg/injection, schedule: Q01DX009 (ip), vehicle: water 100 % of control | dose: 200.0 mg/kg/injection, schedule: Q01DX009 (ip), vehicle: water 100 % of control

COc1ccccc1NC(=O)Oc1ccc(C2CCCCC2)cc1
inactive: [4] 108 % of control | dose: 25.0 mg/kg/injection, schedule: Q04DX002 (ip), vehicle: saline with Tween-80 100 % of control | [11] 97 % of control | dose: 50.0 mg/kg/injection, schedule: Q04DX002 (ip), vehicle: saline with Tween-80 100 % of control | [5] 104 % of control | dose: 100.0 mg/kg/injection, schedule: Q04DX002 (ip), vehicle: saline with Tween-80 92 % of control and 98 % of control

O=C(Oc1ccccc1Cl)c1ccccc1
inactive: [5] 100 % of control | [8] 105 % of control | [6] 98 % of control | [9] 100 % of control | [7] 108 % of control | [10] 111 % of control

Nc1ccc(Br)cc1
inactive: [8] 97 % of control | [9] 100 % of control | [10] 87 % of control

CC(C)Cc1ccc(OC(=O)Nc2ccc(Cl)cc2)cc1
inactive: [4] 106 % of control | [11] 94 % of control | [5] 95 % of control | [8] 86 % of control

ClCC(Cl)CN(Cc1ccccc1)Cc1ccccc1 (stereo not drawn)
inactive: dose: 100.0 mg/kg/injection, schedule: Q01DX001 (ip), vehicle: saline with Tween-80 102 % of control | [5] 102 % of control | dose: 200.0 mg/kg/injection, schedule: Q01DX001 (ip), vehicle: saline with Tween-80 93 % of control | [6] 104 % of control | dose: 400.0 mg/kg/injection, schedule: Q01DX001 (ip), vehicle: saline with Tween-80 98 % of control

CCCCCCCCCCCCCCCCOc1ccccc1/C=N/O
inactive: dose: 100.0 mg/kg/injection, schedule: Q01DX009 (ip), vehicle: Klucel (hydroxypropylcellulose) (HPC) 87 % of control | dose: 200.0 mg/kg/injection, schedule: Q01DX009 (ip), vehicle: Klucel (hydroxypropylcellulose) (HPC) 89 % of control
